The numbers were not newly measured in article PMC8198792, “Prediction of Anticancer Peptides with High Efficacy and Low Toxicity by Hybrid Model Based on 3D Structure of Peptides” (International Journal of Molecular Sciences, 2021), which cites them from elsewhere.

The data set concerns cancer cell lines. The arrangement: method as in 6 sources, ref CancerPPD [45] and SATPdb ||| ref CancerPPD/SATPdb ||| ref CancerPPD, SATPdb, Swissprot (PDB) ||| ref CancerPPD/SATPdb/Swissprot(PDB) ||| ref CancerPPD / SATPdb ||| ... To be noted: cited from earlier work. The text has this: Supplement ijms-22-05630-s001.zip/ACPs(seguence).xlsx, sheet "D1" | column: Activity || Supplement ijms-22-05630-s001.zip/ACPs(seguence).xlsx, sheet "D2" | column: Activity || Supplement ijms-22-05630-s001.zip/ACPs(seguence).xlsx, sheet "D3" | column: Activity || (+ 2 further places)

Setting [1] is: ACPs dataset D1, 1 = ACP (positive), 0 = non-ACP (negative), label taken from databases, ref CancerPPD [45] and SATPdb.
The mark [2] stands for this setting: ACPs dataset D4 (sheet "D4"), label 1 = ACP (CancerPPD ID), 0 = non-ACP (non-anticancer AMP, SATPdb ID), ref CancerPPD [45] and SATPdb.
Where [3] appears, read: ACPs dataset D5 (sheet "D5"), label 1 = ACP (positive set), 0 = non-ACP (negative set), ref CancerPPD [45] and SATPdb.
Where [4] appears, read: ACPs dataset sheet D2, 1 = ACP (CancerPPD/SATPdb ID), 0 = non-ACP (Swissprot/PDB ID), ref CancerPPD, SATPdb, Swissprot (PDB).
The mark [5] stands for this setting: ACPs dataset D1, label 1 = ACP, 0 = non-ACP (non-anticancer AMPs from SATPdb), ref CancerPPD/SATPdb.
Setting [6] is: ACPs dataset D3 (supplement sheet "D3"), 1 = ACP, 0 = non-ACP, ref CancerPPD [45] and SATPdb.
[7] abbreviates: ACPs dataset D4 (sheet "D4"), label 1 = ACP, experimentally validated ACPs, ref CancerPPD [45] and SATPdb.
Where [8] appears, read: ACPs dataset D5 (sheet "D5"), label 1 = ACP (positive set), sequences with CancerPPD/SATPdb ID, ref CancerPPD, SATPdb.
Setting [9] is: ACPs dataset D2 (supplement ACPs(seguence).xlsx, sheet D2), dataset label 1/0 (ACP / non-ACP), entries identified by Swissprot(PDB ID), ref CancerPPD/SATPdb/Swissprot(PDB).
Setting [10] is: ACPs dataset D5, sheet "D5", label 1 = ACP, 0 = non-ACP, ref CancerPPD [45] and SATPdb.
Where [11] appears, read: ACPs dataset D3 (sheet "D3"), label 1 = ACP, 0 = non-ACP, ref CancerPPD/SATPdb.
[12] abbreviates: ACPs dataset D4 (sheet "D4"), label 1 = ACP, 0 = non-ACP, ref CancerPPD / SATPdb.

Where two headings read alike, the source gives them in different places.

With MASRAARLAARLARLALRAL [satpdb10584], the Activity is 0 under setting [1] and 0 under setting [2].
“GSKKPVPIIY CNRRTGKCQR M [5XO4 NMR - A 1-21]”: the Activity is, setting by setting: under setting [3], 0; under setting [4], 0.
As to “SILSTLKDVGISAIKNAGSGVLKTLLCKLNKNCEK [satpdb12439]”, the Activity reads like this: under setting [5], 0; under setting [2], 0.
GIFLKVLGVGKKVLCGVSGLC [satpdb12520]: the Activity runs as follows: under setting [5], 0; under setting [2], 0.
As to KWKLFKKIGIGKFLHSATTF [compound 1188], the Activity is, setting by setting: under setting [6], 1; under setting [2], 1; under setting [3], 1.
Regarding SPWSQCTASCGGGVQTR [satpdb21725], the Activity is, setting by setting: under setting [1], 1; under setting [7], 1; under setting [8], 1; under setting [4], 1.
Consider “EECGPNEVFNTCGSACAPTCAQPKTRICTMQCRIGCQCQEGFLRNGEGACVLPENC [1CCV NMR - A 1-56]”, for which the Activity reads like this: under setting [9], 0; under setting [10], 0.
For SPWSPCSGNCSTGKQQRTR [satpdb11308], the Activity by setting is: under setting [1], 1; under setting [7], 1; under setting [8], 1; under setting [4], 1.
“GRRKRKWLRRIGKGVKIIGGAALDHL [compound 4351]”: the Activity was 1 under setting [6], 1 under setting [2] and 1 under setting [3].
As for “MSAGVITGVL LVFLLLGYLV YALINAEAF [6HRA electron microscopy 3.70, D ,1-29]”, the Activity under setting [3] is recorded as 0 and the Activity under setting [4] is on record as 0.
In the case of TEWSVCNSRCGRGYQKRTR [satpdb19902], the Activity runs as follows: under setting [1], 1; under setting [7], 1; under setting [8], 1; under setting [4], 1.
In the case of VVGSPSAQDEASPL [satpdb16227], the Activity reads like this: under setting [1], 1; under setting [7], 1; under setting [8], 1; under setting [4], 1.
Turning to GVDITVIRPNH [satpdb22601], the Activity under setting [1] was 1, the Activity under setting [7] is on record as 1, the Activity under setting [8] was 1 and the Activity under setting [4] is 1.
Turning to “KWKSFLKTFKSLKKTVLHTlLKAISS [compound 3757]”, the Activity is on record as 1 under setting [6], 1 under setting [2] and 1 under setting [3].
For the substance “ALALLOHALHOLALLAOHLAHOLALA [satpdb14515]”, the Activity was 0 under setting [11], 0 under setting [12] and 0 under setting [10].
For WDLVVVSAGVAEVGV [satpdb12938], the Activity is recorded as 1 under setting [1], 1 under setting [7], 1 under setting [8] and 1 under setting [4].
As for “GWKKWFNRAKKVGKTVGGLAVDHYLG [satpdb11446]”, the Activity is reported as 0 under setting [5] and 0 under setting [2].
As for “GSIPACGESCFKGKCYTPGCSCSKYPLCAKN [2GJ0 NMR - A 1-31]”, the Activity is listed as 0 under setting [3] and 0 under setting [4].
Take “GILLDKLKNFAKTAGKGVLQSLLNTASCKLSGQC [satpdb12360]”: the Activity under setting [5] is listed as 0 and the Activity under setting [2] was 0.
As to “SWLSKTAKKLENSAKKRISEGIAIAIQGGPR [compound 1235]”, the Activity is 1 under setting [1], 1 under setting [7], 1 under setting [8] and 1 under setting [4].
For “DLRFWNPREKLPLPTLPPFNPKPIYIDMGNRY [satpdb12945]”, the Activity is given as 0 under setting [5] and 0 under setting [12].
Take PRFWEYWLRAME [compound 4586]: the Activity runs as follows: under setting [1], 1; under setting [7], 1; under setting [8], 1; under setting [4], 1.
Consider “EYHLMNGANGYLTRVNGKTVYRVTKDPVSAVFGVISNCWGSAGAGFGPQH [satpdb10230]”, for which the Activity is given as 0 under setting [1] and 0 under setting [2].
As to KAAKKAWKAWKKAAKAAWKKAA [compound 4477], the Activity was 1 under setting [1], 1 under setting [7], 1 under setting [8] and 1 under setting [4].
Take KAFDITYVRLKF [satpdb20842]: the Activity by setting is: under setting [1], 1; under setting [7], 1; under setting [8], 1; under setting [4], 1.
As for GPWGPCSGSCGPGRRLRRR [satpdb14705], the Activity by setting is: under setting [1], 1; under setting [7], 1; under setting [8], 1; under setting [4], 1.
On to TSWSPCSASCGGGHYQRTR [satpdb16504], for which the Activity is, setting by setting: under setting [1], 1; under setting [7], 1; under setting [8], 1; under setting [4], 1.
With CLGVGSCNDFAGCGYAIVCFW [satpdb11014], the Activity is, setting by setting: under setting [1], 0; under setting [2], 0.
As to “TITLSTCAILSKPLGNNGYLCTVTKECMPSSCN [satpdb12698]”, the Activity by setting is: under setting [5], 0; under setting [2], 0.
As to “FHVPDDRPCINPGRCPLVPDATCTFVCKAADNDFGYECQHVWTFEGQRVGCYA [5MRV X-ray 1.85,C,1-53]”, the Activity under setting [9] was 0 and the Activity under setting [10] was 0.
In the case of SSSGWLCTLTIECGTIICACR [satpdb10412], the Activity under setting [1] was 0 and the Activity under setting [2] is 0.
In the case of KNWKKILGKIIKVVK [compound 3509], the Activity is, setting by setting: under setting [6], 1; under setting [2], 1; under setting [3], 1.
Regarding “GECEQCFSDGGDCTTCFNNGTGPCANCLAGYPAGCSNSDCTAFLSQCYGGC [1HA8 NMR - A 1-51]”, the Activity under setting [9] was 0 and the Activity under setting [10] is 0.
With KWKLF [compound 1209], the Activity was 1 under setting [6], 1 under setting [2] and 1 under setting [3].
Take RGGRLTYTRpRFTVTVGR [satpdb14856]: the Activity is recorded as 0 under setting [11], 0 under setting [12] and 0 under setting [10].
“GLWSKIKEAAKAAGKAALNAVTGLVNQGDQPS [compound 4452]”: the Activity by setting is: under setting [1], 1; under setting [7], 1; under setting [8], 1; under setting [4], 1.
Take GKWMSLWKHILK [compound 3657]: the Activity by setting is: under setting [6], 1; under setting [2], 1; under setting [3], 1.
For the substance ECRRLCYKQRCVTYCRGR [compound 4435], the Activity reads like this: under setting [1], 1; under setting [7], 1; under setting [8], 1; under setting [4], 1.
With SNASVWECCSTGSWVPFTCC [satpdb10213], the Activity is on record as 0 under setting [1] and 0 under setting [2].
Take PAWRKARRWARRMKKLAA [compound 1618]: the Activity runs as follows: under setting [1], 1; under setting [7], 1; under setting [8], 1; under setting [4], 1.
Regarding FLSSIGKILGNLL [satpdb11843], the Activity by setting is: under setting [5], 0; under setting [2], 0.
GKWKSLLKHILK [compound 3653]: the Activity is 1 under setting [6], 1 under setting [2] and 1 under setting [3].
With LKLGTLVNLAKKIL [satpdb13705], the Activity is on record as 0 under setting [11], 0 under setting [12] and 0 under setting [10].
Consider GLFDIVKKIAGHIVSSI [compound 1297], for which the Activity under setting [6] was 1, the Activity under setting [2] is given as 1 and the Activity under setting [3] is given as 1.
VKLLVyPLKVKLyP [satpdb13876]: the Activity reads like this: under setting [11], 0; under setting [12], 0; under setting [10], 0.
Regarding “NPEDWFTPDTCAYGDSNTAWTTCTTPGQTCYTCCSSCFDVVGEQACQMSAQC [2KC6 NMR - A 1-52]”, the Activity by setting is: under setting [9], 0; under setting [10], 0.
Turning to GKWSKILGHLIR [compound 3641], the Activity reads like this: under setting [6], 1; under setting [2], 1; under setting [3], 1.
